The source of these data is article PMC5223566, “The Benzopyrone Biochanin-A as a reversible, competitive, and selective monoamine oxidase B inhibitor” (BMC Complementary and Alternative Medicine, 2017).

Each structure is given as a SMILES string. Where “and” joins values, the source holds several entries; their conditions need not be identical. Equal entries are not always repeated. Where two headings read alike, the source gives them in different places. Bounds are passed on as bounds.

The target in assay [1] is T1, recombinant human MAO-A (hMAO-A) (Homo sapiens, UniProt P21397).
T1 construct: purchased Sigma-Aldrich; host or cells: baculovirus infected insect cells
T1 sequence (P21397 1-527): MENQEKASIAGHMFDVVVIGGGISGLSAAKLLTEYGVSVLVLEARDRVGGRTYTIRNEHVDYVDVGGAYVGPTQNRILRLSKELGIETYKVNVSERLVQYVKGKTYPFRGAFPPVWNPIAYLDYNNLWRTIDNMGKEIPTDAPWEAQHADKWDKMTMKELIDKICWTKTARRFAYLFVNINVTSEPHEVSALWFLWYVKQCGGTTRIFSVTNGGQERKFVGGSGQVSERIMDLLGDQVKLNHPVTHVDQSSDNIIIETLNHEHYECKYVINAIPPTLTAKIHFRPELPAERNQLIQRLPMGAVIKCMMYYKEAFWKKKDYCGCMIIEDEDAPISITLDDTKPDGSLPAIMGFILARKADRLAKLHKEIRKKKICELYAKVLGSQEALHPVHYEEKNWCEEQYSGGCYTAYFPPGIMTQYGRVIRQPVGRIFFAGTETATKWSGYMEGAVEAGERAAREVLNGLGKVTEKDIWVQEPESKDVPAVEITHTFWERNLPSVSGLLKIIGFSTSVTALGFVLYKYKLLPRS
Description: hMAO-A continuous spectrophotometric assay (enzymatic H2O2 production). The class given is biochemical. The conditions noted are these: for RSA (relative selectivity for hMAO-A): hMAO-B IC50/hMAO-A IC50.
Description: (§1) A slightly modified continuous spectrophotometric assay [25] for measuring enzymatic H2O2 production was validated before the experiments. In this assay, the peroxidase chromogen reagent of 1 mM of vanillic acid and 500 μM 4-aminoantipyrine, and 4 U purpurogallin/mL of horseradish peroxidase (HRP) type-II in HBSS (pH 7.4) was prepared and validated with H2O2 standard curve. […] Isozymes were diluted to 0.7 U/mL final concentration by 10 mM HEPES in HBSS (pH 7.4). Substrates final concentrations were optimized to be 0.5 and 3 mM tyramine HCl and benzylamine HCl for hMAO-A and hMAO-B reactions. […] Stock solvents (ethanol or dimethyl sulfoxide) were kept ≤ 2% the final volume of all assays.
(§2) The six benzopyrones of 5 × final concentrations between 0 to 400 μM and PCSEE from 0 to 250 μg/mL of at least ten data points were prepared in HBSS (pH 7.4). […] Freshly prepared volumes of 50 μL of 2.5 × substrate and peroxidase chromogen mix (1:1) were added. Absorbance was immediately read at 490 nm by the Bio-Tek μQuant Monochromatic Microplate Spectrophotometer for time zero. H2O2 production progression for each enzyme was measured every 20 min for the duration of the assay. First read measurements and the blanks background were subtracted from all absorbance values.

In assay [2] the target is T2, recombinant human MAO-B (hMAO-B) (Homo sapiens, UniProt P27338).
T2 construct: purchased Sigma-Aldrich; host or cells: baculovirus infected insect cells
T2 sequence (P27338 1-520): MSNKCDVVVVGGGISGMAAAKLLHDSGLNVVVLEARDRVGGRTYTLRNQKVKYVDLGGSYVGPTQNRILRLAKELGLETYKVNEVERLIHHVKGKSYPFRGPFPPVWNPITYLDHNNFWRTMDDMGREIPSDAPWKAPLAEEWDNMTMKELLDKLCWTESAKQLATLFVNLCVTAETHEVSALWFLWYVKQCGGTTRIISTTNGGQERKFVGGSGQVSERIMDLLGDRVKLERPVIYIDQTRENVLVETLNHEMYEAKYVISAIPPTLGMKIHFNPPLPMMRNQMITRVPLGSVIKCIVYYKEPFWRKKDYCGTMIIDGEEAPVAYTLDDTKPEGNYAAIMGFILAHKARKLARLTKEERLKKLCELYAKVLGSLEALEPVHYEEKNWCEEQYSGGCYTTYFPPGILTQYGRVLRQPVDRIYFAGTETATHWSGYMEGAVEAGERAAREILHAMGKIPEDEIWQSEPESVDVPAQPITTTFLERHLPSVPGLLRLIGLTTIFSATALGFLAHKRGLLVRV
Description: hMAO-B continuous spectrophotometric assay (enzymatic H2O2 production). In kind it is biochemical. The conditions noted are these: for IC50: 3 mM benzylamine, 40 min preincubation at RT, ± SEM.
Description: as §1, §2

In assay [3] the target is T3, hMAO-B (Homo sapiens, UniProt P27338).
T3 sequence (P27338 1-520): T2 sequence (P27338 1-520)
Description: hMAO-B MAO-Glo luminescence assay. The class given is biochemical. On the set-up: purchased Sigma-Aldrich; host or cells: baculovirus infected insect cells. The conditions noted are these: 10 μg/mL; MAO-Glo kit. How it is done:
A slightly modified continuous spectrophotometric assay for measuring enzymatic H2O2 production was validated before the experiments. In this assay, the peroxidase chromogen reagent of 1 mM of vanillic acid and 500 μM 4-aminoantipyrine, and 4 U purpurogallin/mL of horseradish peroxidase (HRP) type-II in HBSS (pH 7.4) was prepared and validated with H2O2 standard curve. The linearity of reaction on the instrument was confirmed to reach up to 1.76 nmol per reaction volume with R^2 of 0.9999. Isozymes were diluted to 0.7 U/mL final concentration by 10 mM HEPES in HBSS (pH 7.4). Substrates final concentrations were optimized to be 0.5 and 3 mM tyramine HCl and benzylamine HCl for hMAO-A and hMAO-B reactions. The assay was run with and without different standard MAOIs with different selectivities (DEP, CLORG, pirlindole, and rasagiline) and monitored for few hours. Isozymes were found stable within the time of incubation. Stock solvents (ethanol or dimethyl sulfoxide) were kept ≤ 2% the final volume of all assays.
A buffer of 12.5 μL was used to make equivalent blank volumes of wells without enzyme. […] Reporter luciferase detects reagent of 50 μL was incubated with each reaction for 20-30 min to inhibit the enzyme and produce luminescence. Arbitrary light units (ALU) signal changes were measured by Synergy HTX Multi-Reader from Bio-Tek and converted to percent control change.

A short description of assay [4]: H2O2 scavenging activity assay. The conditions noted are these: 15 μM H2O2; PCSEE and ascorbic acid 62.5, 125, 250 μg/mL; BIO-A 6.25, 12.5, 25 μg/mL. On the procedure: The H2O2 scavenging activity of PCSEE and BIO-A at their highest used MAO inhibitory concentrations was investigated and compared to the standard scavenger L-ascorbic acid. […] Buffer substituted the H2O2 (n = 4) to make blank wells. Immediately, peroxidase chromogen-containing vanillic acid, 4-aminoantipyrine, and HRP type-II were prepared as in the MAO spectrophotometric assay and added as 25 μL per well. The developing color at 490 nm was optimally read within 15 min at RT using Bio-Tek Synergy HTX Multi-Reader absorbance.

Assay [5] concerns the target T4, hMAO-A (Homo sapiens, UniProt P21397).
T4 construct: purchased Sigma-Aldrich; host or cells: baculovirus infected insect cells
T4 sequence (P21397 1-527): T1 sequence (P21397 1-527)
The assay can be described thus: hMAO-A recovery after dilution (reversibility). In kind it is biochemical.

For assay [6], the target named is T3, hMAO-B. Description: Michaelis-Menten kinetics of hMAO-B. The conditions noted are these: mixed enzyme inhibition model, GraphPad Prism; ± SEM.
The target in assay [7] is T3, hMAO-B. Description: hMAO-B recovery after dilution (reversibility). On the set-up: purchased Sigma-Aldrich; host or cells: baculovirus infected insect cells. In kind it is biochemical.
The target in assay [8] is T4, hMAO-A. Description: hMAO-A MAO-Glo luminescence assay. The class given is biochemical. The conditions noted are these: 10 μg/mL; MAO-Glo kit.
[9] abbreviates: spectrophotometric assay, 0.5 mM tyramine, 40 min preincubation at RT, ± SEM, read-out: hMAO-A IC50.
Where [10] appears, read: 0.1 × IC50 after 100-fold dilution (diluted).
Where [11] appears, read: 1 × IC50 after 100-fold dilution (diluted).
[12] abbreviates: recovery after dilution, monitored with time.

Regarding `CC(C)=CCc1c(O)cc2c(c1O)C(=O)C[C@@H](c1ccc(O)cc1)O2` [6-PN, 6-prenylnaringenin], the figures for the IC50 in assay [1] (setting [9]) and in assay [2] (spectrophotometric assay) were 54.53 ± 0.31 µM and 17.9 ± 1.84 µM, respectively. Moreover, in assay [2] (hMAO-A IC50/hMAO-B IC50), the “RSB (relative selectivity for hMAO-B)” value was 3.0. In assay [3], the “relative effectiveness between isozymes, luminescence assay” value (from here on “relative effectiveness between isozymes”) is “more effective against hMAO-B”.

As to `COc1ccc(-c2coc3cc(O)cc(O)c3c2=O)cc1` [BIO-A, 5,7-dihydroxy-4'-methoxyisoflavone], in assay [4], the H2O2 scavenging activity entry was “did not show any scavenging activities”. The “% hMAO-A H2O2 production control” value is 90% in assay [5] (setting [10]); 44.5% in assay [5] (1 × IC50, undiluted); 52% and ~ 50% in assay [5] (setting [11]). In assay [5] (setting [12]), the “reversibility of hMAO-A inhibition” value is on record as “reversible inhibitor”. Also, the “hMAO-B inhibition model alpha” value in assay [6] is reported as above 1. The “% hMAO-B H2O2 production control” value is 80% in assay [7] (setting [10]); 36% in assay [7] (1 × IC50, undiluted); 51% and ~ 50% in assay [7] (setting [11]). In addition, in assay [7] (setting [12]), the “reversibility of hMAO-B inhibition” value was “reversible inhibitor”.

Consider `C#CCN(C)[C@H](C)Cc1ccccc1` [DEP, selegiline, reference compound], for which, in assay [5] (setting [10]), the “% hMAO-A H2O2 production control” value came to 7%.

As to `O=c1ccc2ccc3occc3c2o1` [IPS, isopsoralen], the IC50 (usually the point on the concentration scale where inhibition reaches its midpoint) in assay [1] came to 20.6 ± 2.45 µM; in assay [2] (spectrophotometric assay) it was 51 ± 0.24 µM. In assay [1], the “RSA (relative selectivity for hMAO-A)” value was found to be 2.5. The “relative effectiveness between isozymes” value in assay [8] is listed as “more effective against hMAO-A”.

In the case of `CC(C)=CCc1cc(-c2coc3cc(O)ccc3c2=O)ccc1O` [NBI, neobavaisoflavone], the “RSA (relative selectivity for hMAO-A)” value in assay [1] is 1.2. The values for the IC50 in assay [1] (setting [9]) and in assay [2] (spectrophotometric assay) were 66.5 ± 5.66 µM and 77.3 ± 10.6 µM, respectively. For the same molecule, the “relative effectiveness between isozymes” value in assay [8] is reported as “more effective against hMAO-A”.

Regarding `O=c1ccc2cc3ccoc3cc2o1` [PS, psoralen], in assay [1], the “RSA (relative selectivity for hMAO-A)” value stood at 2.0. Moreover, the IC50 in assay [1] (setting [9]) was found to be 89 ± 5.74 µM; in assay [2] (spectrophotometric assay) it was 175 ± 50.9 µM. Further, the “relative effectiveness between isozymes” value in assay [8] is “more effective against hMAO-A”.

For `CC(C)=CCc1cc2c(cc1O)oc(=O)c1c3ccc(O)cc3oc21` [PSD, psoralidin], the “hMAO-A inhibition (in words)” value in assay [1] (spectrophotometric assay, up to 400 μM) is reported as “no detectable inhibition”. Moreover, in assay [2] (spectrophotometric assay, up to 400 μM, p < 0.001), the “hMAO-B inhibition (in words)” value is listed as “partial inhibition”.

Consider `O=C1O[C@H]([C@@H](O)CO)C(O)=C1O` [ascorbic acid, L-ascorbic acid, reference compound], for which the H2O2 scavenging activity entry in assay [4] was “complete scavenging activity”.
